Experimental data reported in ChEMBL document CHEMBL1133301, “Beta-keto-ester chemistry and ketolides. Synthesis and antibacterial activity of 2-halogeno, 2-methyl and 2,3 enol-ether ketolides” (2000).
Converted amounts (≈) assume the structure as drawn.

Legend:
Format in all cases: functional
Haemophilus influenzae = assay: The compound has been evaluated for the antibacterial activity against Haemophilus influenzae 351HT3 (beta-lactamase +)
Streptococcus pyogenes = assay: The compound has been evaluated for the antibacterial activity against Streptococcus pyogenes EryS 02A1UC1.
Staphylococcus aureus [1] = assay: The compound has been evaluated for the antibacterial activity against Staphylococcus aureus EryRi 011GO25i strains
Staphylococcus aureus [2] = assay: The compound has been evaluated for the antibacterial activity against Staphylococcus aureus EryS 011UC4 strains
Streptococcus pneumoniae [3] = assay: The compound has been evaluated for the antibacterial activity against Streptococcus pneumoniae EryS 032UC1 strains
Staphylococcus aureus [4] = assay: The compound has been evaluated for the antibacterial activity against Staphylococcus aureus EryRc 011CB20 strains
Streptococcus pneumoniae [5] = assay: The compound has been evaluated for the antibacterial activity against Streptococcus pneumoniae Ery Ri 030SJ 5i strains
Streptococcus pneumoniae [6] = assay: The compound has been evaluated for the antibacterial activity against Streptococcus pneumoniae EryRc 030PW23c strains
Streptococcus pneumoniae [7] = assay: The compound has been evaluated for the antibacterial activity against Streptococcus pneumoniae EryRc 030SJ1 strains
Mus musculus [8] = assay: The compound has been evaluated for the in vivo efficacy that protect 50% of mice from lethal infection by Streptococcus Pneumonia EryS 032UC1 strain after oral administration
Mus musculus [9] = assay: The compound has been evaluated for the in vivo efficacy that protect 50% of mice from lethal infection by Streptococcus Pneumoniae EryRc 030MV2 strains after oral administration
Mus musculus [10] = assay: The compound has been evaluated for the in vivo efficacy that protect 50% of mice from lethal infection by Streptococcus Pneumoniae EryRi 030SJ5i strains after oral administration
Mus musculus [11] = assay: The compound has been evaluated for the in vivo efficacy that protect 50%of mice from lethal infection by Haemophilus influenzae AmpR 351RD7 after oral administration
Mus musculus [12] = assay: The compound has been evaluated for the in vivo efficacy that protect 50% of mice from lethal infection by Staphylococcus aureus EryS 011HT17 strains after oral administration
Mus musculus [13] = assay: The compound has been evaluated for the in vivo efficacy that protect 50% of mice from lethal infection of Staphylococcus aureus EryS 011HT17 strains after oral administration
Mus musculus [14] = assay: The compound has been evaluated for the in vivo efficacy that protect 50% of mice from lethal infection of Streptococcus Pneumoniae EryRc 030MV2 strains after oral administration
Mus musculus [15] = assay: The compound has been evaluated for the in vivo efficacy that protect 50% of mice from lethal infection of Streptococcus Pneumoniae EryRi 030SJ5i strains after oral administration
Mus musculus [16] = assay: The compound has been evaluated for the in vivo efficacy that protect 50%of mice from lethal infection of Haemophilus influenzae AmpR 351RD7 after oral administration
Mus musculus [17] = assay: The compound has been evaluated for the in vivo efficacy that protect 50% of mice from lethal infection of Streptococcus Pneumonia EryS 032UC1 strain after oral administration

| MIC (Haemophilus influenzae) | MIC (Streptococcus pyogenes) | MIC (Staphylococcus aureus [1]) | MIC (Staphylococcus aureus [2]) | MIC (Streptococcus pneumoniae [3]) | MIC (Staphylococcus aureus [4]) | MIC (Streptococcus pneumoniae [5]) | MIC (Streptococcus pneumoniae [6]) | MIC (Streptococcus pneumoniae [7]) | SMILES | ED50 (Mus musculus [8]) | ED50 (Mus musculus [9]) | ED50 (Mus musculus [10]) | ED50 (Mus musculus [11]) | ED50 (Mus musculus [12]) | ED50 (Mus musculus [13]) | ED50 (Mus musculus [14]) | ED50 (Mus musculus [15]) | ED50 (Mus musculus [16]) | ED50 (Mus musculus [17]) |
| --- | --- | --- | --- | --- | --- | --- | --- | --- | --- | --- | --- | --- | --- | --- | --- | --- | --- | --- | --- |
| 20 µg/mL (≈ 21.9 µM) | 0.3 µg/mL (≈ 0.329 µM) | 20 µg/mL (≈ 21.9 µM) | 2.5 µg/mL (≈ 2.74 µM) | 0.15 µg/mL (≈ 0.164 µM) | > 40 µg/mL | 5 µg/mL (≈ 5.48 µM) | 2.5 µg/mL (≈ 2.74 µM) | 10 µg/mL (≈ 11 µM) | CC[C@H]1OC(=O)/C(C)=C(/OCOCCN(C)C)[C@H](C)[C@@H](O[C@@H]2O[C@H](C)C[C@H](N(C)C)[C@H]2O)[C@](C)(OC)C[C@@H](C)C(=O)[C@H](C)[C@H]2N(CCCCn3cnc(-c4cccnc4)c3)C(=O)O[C@]12C |  |  |  |  |  |  |  |  |  |  |
| 2.5 µg/mL (≈ 3.03 µM) | 0.02 µg/mL (≈ 0.0242 µM) | 1.2 µg/mL (≈ 1.45 µM) | 0.6 µg/mL (≈ 0.726 µM) | 0.02 µg/mL (≈ 0.0242 µM) | > 40 µg/mL | 0.6 µg/mL (≈ 0.726 µM) | 2.5 µg/mL (≈ 3.03 µM) | 2.5 µg/mL (≈ 3.03 µM) | CC[C@H]1OC(=O)C(C)(C)C(=O)[C@H](C)[C@@H](O[C@@H]2O[C@H](C)C[C@H](N(C)C)[C@H]2O)[C@](C)(OC)C[C@@H](C)C(=O)[C@H](C)[C@H]2N(CCCCn3cnc(-c4cccnc4)c3)C(=O)O[C@]12C |  |  |  |  |  |  |  |  |  |  |
| 2.5 µg/mL (≈ 2.95 µM) | 0.04 µg/mL (≈ 0.0473 µM) | > 40 µg/mL | 0.6 µg/mL (≈ 0.709 µM) | 0.04 µg/mL (≈ 0.0473 µM) | > 40 µg/mL | 0.6 µg/mL (≈ 0.709 µM) | 1.2 µg/mL (≈ 1.42 µM) | 5 µg/mL (≈ 5.91 µM) | CC[C@H]1OC(=O)C(C)(Cl)C(=O)[C@H](C)[C@@H](O[C@@H]2O[C@H](C)C[C@H](N(C)C)[C@H]2O)[C@](C)(OC)C[C@@H](C)C(=O)[C@H](C)[C@H]2N(CCCCn3cnc(-c4cccnc4)c3)C(=O)O[C@]12C (stereo partly specified) |  |  |  |  |  |  |  |  |  |  |
| > 40 µg/mL | 0.15 µg/mL (≈ 0.156 µM) | > 40 µg/mL | 5 µg/mL (≈ 5.21 µM) | 0.8 µg/mL (≈ 0.833 µM) | > 40 µg/mL | 20 µg/mL (≈ 20.8 µM) | 20 µg/mL (≈ 20.8 µM) | 20 µg/mL (≈ 20.8 µM) | CC[C@H]1OC(=O)/C(C)=C(/OCOCCCc2ccccc2)[C@H](C)[C@@H](O[C@@H]2O[C@H](C)C[C@H](N(C)C)[C@H]2O)[C@](C)(OC)C[C@@H](C)C(=O)[C@H](C)[C@H]2N(CCCCn3cnc(-c4cccnc4)c3)C(=O)O[C@]12C |  |  |  |  |  |  |  |  |  |  |
| 2.5 µg/mL (≈ 3.14 µM) | 0.02 µg/mL (≈ 0.0251 µM) | 0.3 µg/mL (≈ 0.377 µM) | 0.08 µg/mL (≈ 0.101 µM) | 0.02 µg/mL (≈ 0.0251 µM) | > 40 µg/mL | 2.5 µg/mL (≈ 3.14 µM) | 0.3 µg/mL (≈ 0.377 µM) | 10 µg/mL (≈ 12.6 µM) | CC[C@H]1OC(=O)/C(C)=C\[C@H](C)[C@@H](O[C@@H]2O[C@H](C)C[C@H](N(C)C)[C@H]2O)[C@](C)(OC)C[C@@H](C)C(=O)[C@H](C)[C@H]2N(CCCCn3cnc(-c4cccnc4)c3)C(=O)O[C@]12C |  |  |  |  |  |  |  |  |  |  |

| SMILES | MIC (Haemophilus influenzae) | MIC (Streptococcus pyogenes) | MIC (Staphylococcus aureus [1]) | MIC (Staphylococcus aureus [2]) | MIC (Streptococcus pneumoniae [3]) | MIC (Staphylococcus aureus [4]) | MIC (Streptococcus pneumoniae [5]) | MIC (Streptococcus pneumoniae [6]) | MIC (Streptococcus pneumoniae [7]) | ED50 (Mus musculus [8]) | ED50 (Mus musculus [9]) | ED50 (Mus musculus [10]) | ED50 (Mus musculus [11]) | ED50 (Mus musculus [12]) | ED50 (Mus musculus [13]) | ED50 (Mus musculus [14]) | ED50 (Mus musculus [15]) | ED50 (Mus musculus [16]) | ED50 (Mus musculus [17]) |
| --- | --- | --- | --- | --- | --- | --- | --- | --- | --- | --- | --- | --- | --- | --- | --- | --- | --- | --- | --- |
| CC[C@H]1OC(=O)[C@@](C)(F)C(=O)[C@H](C)[C@@H](O[C@@H]2O[C@H](C)C[C@H](N(C)C)[C@H]2O)[C@](C)(OC)C[C@@H](C)C(=O)[C@H](C)[C@H]2N(CCCCn3cnc(-c4cccnc4)c3)C(=O)O[C@]12C | 1.2 µg/mL (≈ 1.45 µM) | < 0.02 µg/mL | 0.08 µg/mL (≈ 0.0964 µM) | 0.02 µg/mL (≈ 0.0241 µM) | < 0.02 µg/mL | > 40 µg/mL | < 0.02 µg/mL | < 0.02 µg/mL | < 0.02 µg/mL | 1.5 mg/kg | 2 mg/kg | 4.3 mg/kg | 56 mg/kg | 9 mg/kg |  |  |  |  |  |
| CC[C@H]1OC(=O)[C@H](C)[C@@H](O[C@H]2C[C@@](C)(OC)[C@@H](O)[C@H](C)O2)[C@H](C)[C@@H](O[C@@H]2O[C@H](C)C[C@H](N(C)C)[C@H]2O)[C@](C)(O)C[C@@H](C)CN(C)[C@H](C)[C@@H](O)[C@]1(C)O [AZITHROMYCIN] | 1.2 µg/mL (≈ 1.6 µM) | 0.6 µg/mL (≈ 0.801 µM) | > 40 µg/mL | 0.3 µg/mL (≈ 0.401 µM) | 0.15 µg/mL (≈ 0.2 µM) | > 40 µg/mL | > 40 µg/mL | > 40 µg/mL | > 40 µg/mL |  |  |  |  |  | 72 mg/kg | > 50 mg/kg | > 50 mg/kg | 94 mg/kg | 4.5 mg/kg |
| CC[C@H]1OC(=O)[C@H](C)[C@@H](O[C@H]2C[C@@](C)(OC)[C@@H](O)[C@H](C)O2)[C@H](C)[C@@H](O[C@@H]2O[C@H](C)C[C@H](N(C)C)[C@H]2O)[C@](C)(OC)C[C@@H](C)C(=O)[C@H](C)[C@@H](O)[C@]1(C)O [CLARITHROMYCIN] | 5 µg/mL (≈ 6.68 µM) | 0.008 µg/mL (≈ 0.0107 µM) | > 40 µg/mL | 0.3 µg/mL (≈ 0.401 µM) | 0.04 µg/mL (≈ 0.0535 µM) | > 40 µg/mL | > 40 µg/mL | > 40 µg/mL | > 40 µg/mL | 2 mg/kg | > 50 mg/kg | > 50 mg/kg | > 150 mg/kg | 12 mg/kg |  |  |  |  |  |
| CC[C@H]1OC(=O)[C@H](C)C(=O)[C@H](C)[C@@H](O[C@@H]2O[C@H](C)C[C@H](N(C)C)[C@H]2O)[C@](C)(OC)C[C@@H](C)C(=O)[C@H](C)[C@H]2N(CCCCn3cnc(-c4cccnc4)c3)C(=O)O[C@]12C [TELITHROMYCIN] | 1.2 µg/mL (≈ 1.48 µM) | < 0.02 µg/mL | 0.08 µg/mL (≈ 0.0985 µM) | 0.04 µg/mL (≈ 0.0493 µM) | < 0.02 µg/mL | > 40 µg/mL | < 0.02 µg/mL | 0.04 µg/mL (≈ 0.0493 µM) | < 0.02 µg/mL |  |  |  |  |  |  |  |  |  |  |
